Patent publication US20120264817A1, “SOLUBILIZED FORMULATION OF DOCETAXEL WITHOUT TWEEN 80” (priority 2007, published 2012)

How the values were obtained:
[1] = docetaxel as marketed by Sanofi-Aventis; cited from earlier work
[2] = physical stability (onset of precipitation) of initial and final dilutions of docetaxel formulations; format: physicochemical
Protocol: Observations: • 1. The concentrate turns waxy and viscous when stored at temperature below the room temperature, i.e., 22° C. To disperse this viscous mass, a large amount of WFI is needed to make the system suitable for subsequent dilution. So the first step of making a 10 mg/ml solution cannot be achieved with this liquid concentrate. • 2. To achieve a primary dilution of docetaxel of 10 mg/ml, the above concentrate was heated in a water bath to form a viscous liquid, and then diluted with 8 ml of water for injection. The primary dilution is stable for a period of not less than 8 hours, which was a stability condition stipulated in the innovators product. This solution, when further diluted with NS, achieves the targeted concentration range of 0.3-0.74 mg/ml of docetaxel in the final solution for administration. This solution is stable for a period of 24 hours as opposed to the stability of 4 hours with innovators product. In this example, we have achieved the target concentration of docetaxel for administration without the presence of polysorbate 80. • 3.
The concentrate is liquid at room temperature and turned waxy only when stored at 5° C. or below, but turned back to free flowing liquid in 5 minutes when kept at room temperature. • 2. During the initial dilution step to get 10 mg/ml, the contents of the vial turned into a thixotropic liquid within the vial. […]

[3] = solubility studies with docetaxel in solvents/excipients; details: glycofurol, organic solvent or mixture
Source text: In some instances a solubilizer can provide sufficient degree of dissolution that a separate hydrotrope or other solubilization aid is not needed, but this is generally not the case (i.e. a separate hydrotrope is usually desirable). […] The concentration of drug in solubilizer varies depending on the lipophilicity of drug. […] We have conducted the solubility studies in these excipients to understand how different excipients containing different functional groups are contributing to the solubility of docetaxel. A solubilizer can also act as a hydrotrope (on dilution with infusion fluid) if it is used in the sufficiently large quantities. […] In the table below and the rest of this specification, the terms “solubilizer” and “hydrotrope” will be used with reference to concentrates (both initial and intermediate) unless specifically indicated otherwise or the context so requires.

CC(=O)O[C@@]12CO[C@@H]1C[C@H](O)[C@@]1(C)C(=O)[C@H](O)C3=C(C)[C@@H](OC(=O)[C@H](O)[C@@H](NC(=O)OC(C)(C)C)c4ccccc4)C[C@@](O)([C@@H](OC(=O)c4ccccc4)[C@H]21)C3(C)C [docetaxel, (2R,3S)—N-carboxy-3-phenylisoserine, N-tert-butyl ester, 13-ester with 5beta-20-epoxy-1,2α,4,7β,10β,13α-hexahyciroxytax-11-en-9-one 4-acetate 2-benzoate, trihydrate]
lipophilicity [1]: highly lipophilic
solubility in water [1]: practically insoluble in water
behaviour on dilution to administration concentrations ([2]; about 10 mg/ml solution in glycofurol, diluted with IV fluids): will not precipitate out
behaviour on dilution to administration concentrations ([2]; about 200 mg/ml liquid concentrate in glycofurol, diluted with water): precipitates out
solubility [3]: ~200 mg/mL
